This note sets out measurements from PMC6968685 (Journal of Enzyme Inhibition and Medicinal Chemistry, 2020).

Broadly, the melting point is the temperature of the solid-liquid transition. As usually defined, the IC50 is the concentration needed to halve the response being measured. The term CC50 denotes the concentration at which the toxic effect on the cells reaches its halfway point.

Structures can show the parent of a compound that is named as a salt.

Series [1] has as its system P. falciparum CQ-resistant strain W2. As to the kind of experiment: In vitro antiplasmodial activity, SYBR Green I fluorescence-based method, strain W2. It counts as cell-based. The conditions noted are these: for IC50: Plasmodium falciparum, chloroquine-resistant strain W2, 48 h incubation, read-out: P. falciparum strains IC50 values, W2; for Selectivity index HepG2/W2: SI = CC50 HepG2 / IC50 P. falciparum W2. The procedure: The in vitro antiplasmodial activities were tested over concentrations ranging from […] against culture-adapted P. falciparum reference strains 3D7 and W2. […] The parasites were cultivated in RPMI medium (Sigma-Aldrich, Lyon, France) supplemented with 0.5% Albumax I (Life Technologies Corporation, Paisley, UK), hypoxanthine (Sigma-Aldrich), and gentamicin (Sigma-Aldrich) with human erythrocytes and were incubated at 37 °C in a candle jar, as described previously[43] .The P. falciparum drug susceptibility test was carried out in 96-well flat-bottom sterile plates in a final volume of 250 µl. After 48 h incubation period with the drugs, quantities of DNA in treated and control cultures of parasites in human erythrocytes were quantified using the SYBR Green I (Sigma-Aldrich) fluorescence-based method[44]^,[45]. Briefly, after incubation, plates were frozen at −20 °C until use. Plates were then thawed for 2 h at room temperature, and 100 µl of each homogenised culture was transferred to a well of a 96-well flat-bottom sterile black plate (Nunc, Inc., Rochester, NY) that contained 100 µl of the SYBR Green I lysis buffer (2xSYBR Green, 20 mM Tris base pH 7.5, 5 mM EDTA, 0.008% w/v saponin, 0.08% w/v Triton X-100). […] Plates were incubated for 1 h at room temperature and then read on a fluorescence plate reader (Tecan, Grödig, Austria) using excitation and emission wavelengths of 485 and 535 nm, respectively. IC50 values were calculated by non-linear regression analysis of data from dose-response curves, using TableCurve 2D version 5.0 software (Systat Software, San Jose, CA). IC50 values are reported as means calculated from three independent experiments.

Series [2] relates to P. falciparum CQ-sensitive strain 3D7. Nature of the series: In vitro antiplasmodial activity, SYBR Green I fluorescence-based method, strain 3D7. It counts as cell-based. Conditions: for IC50: Plasmodium falciparum, chloroquine-sensitive strain 3D7, 48 h incubation, read-out: P. falciparum strains IC50 values, 3D7; for Selectivity index HepG2/3D7: SI = CC50 HepG2 / IC50 P. falciparum 3D7. In short, it runs like this:
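P. falciparum 3D7 and W2 cultured in human erythrocytes in RPMI with 0.5% Albumax I at 37 °C, exposed 48 h to compounds tested […]. Parasite DNA read by SYBR Green I fluorescence (ex 485/em 535 nm); IC50 by non-linear regression, mean of three independent experiments.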

Series [3] has as its system L. donovani (MHOM/IN/00/DEVI) promastigotes. Nature of the series: In vitro antileishmanial activity, MTT assay on promastigotes. The format is cell-based. The conditions noted are these: Leishmania donovani, 72 h incubation, ≥10 = no activity noted at the highest concentration tested. In a few lines:
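Log-phase L. donovani MHOM/IN/00/DEVI promastigotes (10^6/ml, Schneider's + 20% FCS) were exposed to graded compound concentrations (DMSO <0.5% v/v) for 72 h at 27 °C, in duplicate. Growth measured by MTT reduction (4 h, A570 nm); IC50 obtained by regression.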
A general note: Tetrazolium dyes change colour on reduction, which living cells bring about.

Series [4] deals with T. brucei brucei AnTat 1.9. Nature of the series: In vitro antitrypanosomal activity, Alamar Blue assay. It counts as cell-based. Conditions: for Selectivity index HepG2/Tryp.: SI = CC50 HepG2 / IC50 Trypanosoma brucei brucei; for IC50: Trypanosoma brucei, slender bloodstream trypomastigotes, AnTat 1.9 strain, read-out: Trypanosoma brucei brucei IC50 values, Trypanos Antat 1.9. In a few lines: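 Bloodstream parasites (2000/well) in supplemented MEM with 20% horse serum exposed to compound in duplicate for 69 h at 37 °C, then Alamar Blue added for 5 h; fluorescence read at ex 530/em 590 nm. IC50 by nonlinear regression, from three independent experiments.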
(In general: The colour change of resazurin is a common sign of viable cells or microbes.)

The nature of series [5]: Cytotoxicity evaluation, MTT. Conditions: human. It counts as cell-based, human. In short, it runs like this: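 HepG2 hepatocarcinoma cells exposed to compound in duplicate, then viability measured by MTT reduction (0.5 mg/ml), formazan dissolved in DMSO and read at 570 nm against 630 nm. Viability expressed as percent of untreated cells; CC50 taken from dose-response curve, doxorubicin as positive control.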

With `CN(C)CCCNCc1ccc(-c2cc3ccccc3c(-c3ccc(CNCCCN(C)C)cc3)n2)cc1` (as salt: (cooh)2) [Compound 2b, 1,3-Bis{4-[(3-dimethylaminopropyl)aminomethyl]phenyl}isoquinoline], the melting point was 186 to 188 °C.

Regarding `COc1ccc2c(-c3ccc(CNCCCN4CCN(C)CC4)cc3)nc(-c3ccc(CNCCCN4CCN(C)CC4)cc3)nc2c1` [Compound 3q, 7-Methoxy-2,4-bis{4-[(3–(4-methylpiperazin-1-yl)propyl)aminomethyl]phenyl}quinazoline], in series [1], the IC50 was 11500 ± 1050 nM and the “Selectivity index HepG2/W2” value came out at 0.11. For the same compound, in series [2], the half-maximal inhibitory concentration (IC50) is 10400 ± 580 nM and the “Selectivity index HepG2/3D7” value is reported as 0.12. Besides, the IC50 in series [3] is at least 10000 nM. Moreover, in series [4], the “Selectivity index HepG2/Tryp.” value turned out to be 0.74 and the IC50 is 1710 ± 145 nM. It took 1270 ± 500 nM to reach half-maximal cytotoxicity in series [5] (CC50 at 72 h).

In the case of `COc1ccc2c(-c3ccc(CNCCCCN4CCN(C)CC4)cc3)cc(-c3ccc(CNCCCCN4CCN(C)CC4)cc3)nc2c1` [Compound 1o, 7-Methoxy-2,4-bis{4-[(4–(4-methylpiperazin-1-yl)butyl)aminomethyl]phenyl}quinoline], in series [1], the IC50 worked out at 2260 ± 480 nM and the “Selectivity index HepG2/W2” value is on record as 1.47. For the same compound, in series [2], the half-maximal inhibitory concentration (IC50) worked out at 2410 ± 80 nM and the “Selectivity index HepG2/3D7” value is 1.38. The IC50 in series [3] is at least 10000 nM. Besides, in series [4], the “Selectivity index HepG2/Tryp.” value was 2.96 and the IC50 was found to be 1120 ± 118 nM. The CC50 at 72 h in series [5] worked out at 3320 ± 500 nM.

Regarding `COc1ccc2nc(-c3ccc(CNCCCN(C)C)cc3)cc(-c3ccc(CNCCCN(C)C)cc3)c2c1` [Compound 1j, 6-Methoxy-2,4-bis{4-[(3-dimethylaminopropyl)aminomethyl]phenyl}quinoline], in series [1], the IC50 was 4210 ± 310 nM and the “Selectivity index HepG2/W2” value worked out at 0.59. In addition, in series [2], the IC50 was determined as 2650 ± 180 nM and the “Selectivity index HepG2/3D7” value was determined as 0.94. This compound also showed an IC50 in series [3] of at least 10000 nM. In series [4], the “Selectivity index HepG2/Tryp.” value is on record as 4.03 and the IC50 worked out at 620 ± 70 nM. This compound also came in with a 50% cytotoxic concentration (CC50) at 72 h in series [5] of 2500 ± 200 nM.

For the compound `CN1CCN(CCCNCc2ccc(-c3cc4ccccc4c(-c4ccc(CNCCCN5CCN(C)CC5)cc4)n3)cc2)CC1` [Compound 2d, 1,3-Bis{4-[(3–(4-methylpiperazin-1-yl)propyl)aminomethyl]phenyl}isoquinoline], in series [1], the IC50 is 5460 ± 440 nM and the “Selectivity index HepG2/W2” value is reported as 2.72. Besides, in series [2], the IC50 was 5770 ± 670 nM and the “Selectivity index HepG2/3D7” value was determined as 2.57. This compound also had an IC50 in series [3] of at least 10000 nM. Also, in series [4], the “Selectivity index HepG2/Tryp.” value was 11.60 and the IC50 worked out at 1280 ± 122 nM. Moreover, in series [5], the CC50 at 72 h stood at 14800 ± 1100 nM.

On to `COc1ccc2c(-c3ccc(CNCCCN(C)C)cc3)cc(-c3ccc(CNCCCN(C)C)cc3)nc2c1` [Compound 1n, 7-Methoxy-2,4-bis{4-[(3-dimethylaminopropyl)aminomethyl]phenyl}quinoline], for which the IC50 in series [1] is 1690 ± 240 nM; in series [2], 3180 ± 360 nM; in series [3], at least 10000 nM; in series [4], 1200 ± 296 nM. In addition, the “Selectivity index HepG2/W2” value in series [1] was found to be 0.28. For the same compound, the “Selectivity index HepG2/3D7” value in series [2] is listed as 0.15. Further, the “Selectivity index HepG2/Tryp.” value in series [4] is listed as 0.40. For the same compound, in series [5], the CC50 at 72 h is 480 ± 100 nM.

For `COc1ccc2nc(-c3ccc(CNCCN4CCN(C)CC4)cc3)nc(-c3ccc(CNCCN4CCN(C)CC4)cc3)c2c1` [Compound 3l, 6-Methoxy-2,4-bis{4-[(2–(4-methylpiperazin-1-yl)ethyl)aminomethyl]phenyl}quinazoline], in series [1], the IC50 came to 1340 ± 290 nM and the “Selectivity index HepG2/W2” value is recorded as 4.87. In series [2], the concentration for half-maximal inhibition (IC50) came out at 1810 ± 250 nM and the “Selectivity index HepG2/3D7” value stood at 3.61. Moreover, the IC50 in series [3] is at least 10000 nM. Moreover, in series [4], the “Selectivity index HepG2/Tryp.” value is 11.06 and the IC50 is 590 ± 57 nM. The CC50 at 72 h in series [5] came to 6530 ± 600 nM.
